Reference: article PMC4280904 (Journal of Veterinary Pharmacology and Therapeutics, 2014)

Tests used:
plasma protein = assay: In vivo plasma protein binding in dogs dosed with [14C] imepitoin; type: in vitro ADME, beagle dogs
[1] = Dose linearity of imepitoin after oral dosing; type: in vivo, beagle dogs; conditions: for Cmax / Tmax: both, beagle, dog, plasma, po; for Tlag obs: enteric-coated capsules, mean ± SEM, n=6
NAT1 = assay: In vivo enzyme induction: N-acetyltransferase, p-aminobenzoic acid; parameters: species or system Wistar rats; conditions: rats, 3–100 mg/kg p.o. once daily 7 days
plasma proteins = assay: Reversibility of protein binding; type: in vitro ADME; conditions: human plasma, incubation up to 2 h at 37 °C, TCA precipitation

SMILES: O=C1N=C(N2CCOCC2)CN1c1ccc(Cl)cc1 [Imepitoin, 1-(4-chlorophenyl)-4-morpholino-imidazolin-2-one]
- in vivo plasma protein binding (plasma protein; 2 h after 20 mg/kg p.o. or 1 mg/kg i.v.): 59–69%
- in vivo plasma protein binding (plasma protein; 8 h after 20 mg/kg p.o. or 1 mg/kg i.v.): 62–72%
- In vivo protein binding (plasma protein; female dogs, 1 mg/kg i.v., 2 h after dosing, mean ± SEM): 59 ± 0.69%
- In vivo protein binding (plasma protein; female dogs, 1 mg/kg i.v., 4 h after dosing, mean ± SEM): 66 ± 2.66%
- In vivo protein binding (plasma protein; female dogs, 1 mg/kg i.v., 8 h after dosing, mean ± SEM): 72 ± 1.33%
- In vivo protein binding (plasma protein; female dogs, 20 mg/kg p.o., 2 h after dosing): 69 (n < 3) %
- In vivo protein binding (plasma protein; female dogs, 20 mg/kg p.o., 4 h after dosing, mean ± SEM): 66 ± 0.69%
- In vivo protein binding (plasma protein; female dogs, 20 mg/kg p.o., 8 h after dosing, mean ± SEM): 62 ± 7.68%
- In vivo protein binding (plasma protein; male dogs, 20 mg/kg p.o., 2 h after dosing): 60 (n < 3) %
- In vivo protein binding (plasma protein; male dogs, 20 mg/kg p.o., 4 h after dosing, mean ± SEM): 63 ± 1.62%
- In vivo protein binding (plasma protein; male dogs, 20 mg/kg p.o., 8 h after dosing, mean ± SEM): 67 ± 2.71%
- Cmax ([1]; 10 mg/kg): 1820 ± 920 ng/mL
- Tmax ([1]; 10 mg/kg): 8.67 ± 3.1 h
- Cmax ([1]; 20 mg/kg): 3500 ± 1070 ng/mL
- Tmax ([1]; 20 mg/kg): 10.7 ± 4 h
- Cmax ([1]; 50 mg/kg): 6410 ± 1750 ng/mL
- Tmax ([1]; 50 mg/kg): 18 ± 3.8 h
- Tmax ([1]; 100 mg/kg): 8.67 ± 3.1 h
- Tlag obs ([1]; single dose 10 mg/kg p.o.): 3.67 ± 0.92 h
- Tlag obs ([1]; single dose 20 mg/kg p.o.): 5.67 ± 0.95 h
- Tlag obs ([1]; single dose 50 mg/kg p.o.): 4.17 ± 1.05 h
- Tlag obs ([1]; single dose 100 mg/kg p.o.): 2.25 ± 0.94 h
- induction of NAT1 (NAT1): did not induce
- radioactivity found in the washed precipitate (covalent binding) (plasma proteins): less than 0.5%
